Test results taken from US20130184272A1, “DIABETES THERAPEUTIC AGENT” (TAKEDA PHARMACEUTICAL COMPANY LIMITED, priority 2010, published 2013).

Key:
MyoD = assay: Muscle-related gene expression in myoblast: MyoD; format: cell-based, Mouse; settings: for MyoD/36B4 expression level: 10 μM, 1 day, relative value
myogenin = assay: Muscle-related gene expression in myoblast: myogenin; format: cell-based, Mouse; settings: for Myogenin/36B4 expression level: 10 μM, 1 day, relative value
creatine kinase (CKM) = assay: Muscle-related gene expression in myoblast: creatine kinase (CKM); format: cell-based, Mouse; settings: for CKM/36B4 expression level: 10 μM, 1 day, relative value
[1] = test system: Male FisherF344 rats fed with a high-fat diet; assay: Antiobesity action and dyslipidemia improving effect in high-fat diet-loaded rat; format: in vivo
Method: Male FisherF344 rats (CLEA Japan, Inc.) fed with a high-fat diet (45 kcal % fat, D12451, research diet) for 38 weeks from 5 weeks of age were used. They were bred with a powder high-fat diet (D12451M) for 4 weeks for acclimation, measured for body weight, body composition, amount of ingestion and plasma component, and divided into 3 groups (6 per group) without difference between them. The plasma components (total cholesterol, triglyceride, glucose concentration) were measured by HITACHI automatic analyzer 7070. As the body composition, total fat mass, body fat percentage, lean body mass of lower leg, and visceral fat mass were measured by X-ray CT apparatus (LCT-100A, LaTheta). The compound of Reference Example 1 was suspended in aqueous methylcellulose solution and orally administered repeatedly to 2 groups of the rats divided into 3 groups at 0.03 mg/kg or 0.1 mg/kg once a day for 14 days. A 0.5% aqueous methylcellulose solution was orally administered similarly to the remaining one group and used as a control group. On the administration completion day, the blood was drawn again from the tail vein, and plasma levels of total cholesterol, triglyceride, glucose, insulin and leptin, and body weight and body composition (total fat mass, body fat percentage, lean body mass of lower leg, visceral fat mass) were measured. The amount of ingestion was calculated from the amount of the feed given and the amount left, and the total of the test period was calculated. The numerical values in Table 11 and Table 12 show mean±standard deviation at n=5-6 (n is the number of rats).

C/EBPβ = assay: Adipocyte-related gene expression level: C/EBPβ; format: cell-based
Method: In the same manner as in Example 10, the cells were cultured, and total RNA was extracted using Rneasy96 kit (Qiagen) from the cell immediately before and 6 days after addition of […] of the compound of Reference Example 1. cDNA was prepared from the total RNA using TaqMan reverse transcription reagent (Applied Biosystems), quantitative PCR was performed by ABI PRISM7000 or 7000 using TaqMan Universal PCR master mix (Applied Biosystems) and commercially available primers, and the expression level of each gene was determined. The commercially available primers used were as follows. • C/EBPα (Mm00514283_s1, TaqMan Gene Expression Assays, Applied Biosystems) • C/EBPβ (Mm00843434_s1, TaqMan Gene Expression Assays, Applied Biosystems) • KLF15 (Mm00517792_m1, TaqMan Gene Expression Assays, Applied Biosystems) • PPARγ (Mm00440945_m1, TaqMan Gene Expression Assays, Applied Biosystems)
The expression level was amended by the amount of 36B4 (Takeda Pharmaceutical Company Limited) in the same manner as in Example 3, and the relative values to the value immediately before addition of each gene compound as 1 are shown in Table 16. The data in Table 16 show mean±standard deviation at n=3-4 (n is the number of samples).

[2] = test system: Normal male C57BL/6J mice; assay: Data of normal mouse; format: in vivo
Method: Normal male C57BL/6J mice (CLEA Japan, Inc.) were bred allowing free ingestion of both feed and water. The mice were bred for acclimation for 1 week from 16-week-old. The body weight was measured, the mice were divided into 2 groups (5 per group) to be uniform, and the compound of Reference Example 1 (0.03 mg/kg) was orally administered to one group for 2 weeks. On the last day, the body weight, and plasma levels of total cholesterol, glucose, lactic acid, GOT, GPT and neutral lipid were measured. The data of Table 19 show mean±standard deviation at n=5 (n is the number of samples).

[3] = C2C12 cells cultured in a differentiation medium
[4] = 0.03 mg/kg oral once a day, 14 days
[5] = 0.1 mg/kg oral once a day, 14 days
[6] = normal mice, 0.03 mg/kg oral, 2 weeks

SMILES: Cc1ncccc1Oc1sc(C(N)=O)c2c1-c1c(cnn1C)CC2 [Ref. Ex. 1, 1-methyl-8-[(2-methylpyridin-3-yl)oxy]-4,5-dihydro-1H-thieno[3,4-g]indazole-6-carboxamide]
- expression of MyoD (in words) (MyoD; [3]): increased
- MyoD/36B4 expression level (MyoD; DM (differentiation medium)): 1.59 ± 0.20
- MyoD/36B4 expression level (MyoD; GM (growth medium)): 1.26 ± 0.10
- expression of myogenin (in words) (myogenin; [3]): promoted
- Myogenin/36B4 expression level (myogenin; DM (differentiation medium)): 3.81 ± 0.55
- Myogenin/36B4 expression level (myogenin; GM (growth medium)): 0.03 ± 0.00
- expression of creatine kinase (in words) (creatine kinase (CKM); [3]): promoted
- CKM/36B4 expression level (creatine kinase (CKM); DM (differentiation medium)): 4.84 ± 1.08
- CKM/36B4 expression level (creatine kinase (CKM); GM (growth medium)): 0.03 ± 0.01
- amount of ingestion (g/2 weeks) [1, 4]: 165.8 ± 13.9 g/2 weeks
- body fat percentage, change rate (%) [1, 4]: 3.5 ± 1.5 %
- body weight [1, 4]: 460.8 ± 15.3 g
- body weight, amount of change [1, 4]: -3.8 ± 7.5 g
- lean body mass (g) of lower leg [1, 4]: 82.9 ± 5.2 g
- lean body mass of lower leg, amount of change [1, 4]: 8.4 ± 1.7 g
- plasma glucose [1, 4]: 142.3 ± 5.6 mg/dL
- plasma insulin [1, 4]: 5.2 ± 1.0 ng/mL
- plasma leptin [1, 4]: 1.2 ± 0.4 ng/dL
- plasma total cholesterol [1, 4]: 102.3 ± 12.6 mg/dL
- plasma triglyceride [1, 4]: 242.4 ± 92.5 mg/dL
- total fat mass [1, 4]: 138.0 ± 16.6 g
- total fat mass, amount of change [1, 4]: -17.5 ± 8.8 g
- visceral fat mass [1, 4]: 53.8 ± 6.1 g
- visceral fat mass, amount of change [1, 4]: -4.3 ± 3.4 g
- amount of ingestion (g/2 weeks) [1, 5]: 127.9 ± 21.2 g/2 weeks
- body fat percentage (%) [1, 5]: 26.9 ± 2.6 %
- body fat percentage, change rate (%) [1, 5]: −7.1 ± 1.1 %
- body weight [1, 5]: 446.5 ± 38.1 g
- body weight, amount of change [1, 5]: -19.5 ± 11.0 g
- lean body mass (g) of lower leg [1, 5]: 84.5 ± 6.9 g
- lean body mass of lower leg, amount of change [1, 5]: 9.8 ± 4.2 g
- plasma glucose [1, 5]: 146.3 ± 5.9 mg/dL
- plasma insulin [1, 5]: 2.8 ± 1.1 ng/mL
- plasma leptin [1, 5]: 0.6 ± 0.4 ng/dL
- plasma total cholesterol [1, 5]: 77.3 ± 9.6 mg/dL
- plasma triglyceride [1, 5]: 100.1 ± 43.1 mg/dL
- total fat mass [1, 5]: 120.5 ± 18.2 g
- total fat mass, amount of change [1, 5]: -38.1 ± 6.7 g
- visceral fat mass [1, 5]: 47.2 ± 9.0 g
- visceral fat mass, amount of change [1, 5]: -11.0 ± 2.9 g
- body weight (in words) ([1]; administration at 0.1 mg/kg): clear body weight decreasing action
- C/EBPβ expression level (amended by 36B4) (C/EBPβ; 10 μm [sic] of compound, 6 days after addition, value immediately before addition = 1): 1.3 ± 0.5
- expression level of C/EBPβ (in words) (C/EBPβ; C3H10T1/2 cell): decreased
- normal body weight and plasma markers (in words) ([2]; normal C57BL/6J mice): does not affect
- body weight (g) on last day [2, 6]: 28.03 ± 0.84 g
- plasma GOT (U/L) [2, 6]: 63.4 ± 31.1 U/L
- plasma GPT (U/L) [2, 6]: 29.4 ± 3.9 U/L
- plasma glucose [2, 6]: 155.5 ± 11.9 mg/dL
- plasma lactic acid [2, 6]: 49.3 ± 16.5 mg/dL
- plasma neutral fats [2, 6]: 78.0 ± 31.0 mg/dL
- plasma total cholesterol [2, 6]: 81.1 ± 10.2 mg/dL
- total amount of ingestion (g/2 weeks) [2, 6]: 55.6 ± 2.5 g/2 weeks
